From patent US9296759B2, “Amino-oxazine and amino-dihydrothiazine compounds as beta-secretase modulators and methods of use” (AMGEN INC., priority 2011, dated 2016)
Like-named read-outs stand apart in the source and are kept apart here.

Tests used:
[1] = target: BACE 1 (beta secretase enzyme) (Homo sapiens (Human), UniProt P56817); assay: In vitro enzymatic BACE FRET assay; type: biochemical; settings: average IC50
How it was run: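 The enzyme was tested in 0.05 M acetate, pH 4.2, with 10% DMSO final and 100 uM genapol. The reaction was started with 50 nM quenched FRET peptide substrate, incubated one hour and stopped with Tris to neutral pH. Cleavage was read as fluorescence ([…]).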

[2] = test system: Aβ40 in conditioned medium of cells stably expressing Amyloid Precursor Protein (APP); assay: In vitro BACE cell-based assay (HEK cell assay, Aβ40 sandwich ELISA); settings: Homo sapiens, HEK293; average IC50, Aβ40, 24 h incubation
How it was run: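 Secreted Aβ40 was quantified by sandwich ELISA (pAb40 capture, biotinylated 6E10 detection, Europium time-resolved fluorescence). IC50 derived from percent inhibition versus concentration.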

Cathepsin D = Cathepsin D (Homo sapiens (Human), UniProt P07339); assay: In vitro enzymatic Cat D (Cathepsin D) FRET assay; type: biochemical; settings: average IC50
How it was run: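 CHO-expressed recombinant enzyme in 0.05 M citrate pH 3.5, 5 mM CHAPS, 10% DMSO final; reaction started with 20 nM quenched-peptide FRET substrate (cleavage site spanned by fluorophore/quencher), 1 h incubation.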

Abeta 40 = assay: In vivo inhibition of beta-secretase: Abeta 40 reduction in CSF and brain of the rat; settings: 10 mpk, after 4 hrs
Source text: In Vivo Inhibition of Beta-Secretase
Several animal models, including mouse, rat, dog, and monkey, may be used to screen for inhibition of beta-secretase activity in vivo following administration of a test compound sample. Animals used in this invention can be wild type, transgenic, or gene knockout animals. For example, the Tg2576 mouse model, prepared and conducted as described in Hsiao et al., 1996, Science 274, 99-102, and other non-transgenic or gene knockout animals are useful to analyze in vivo inhibition of Amyloid beta peptide (Abeta) production in the presence of inhibitory test compounds. Generally, 2 to 18 month old Tg2576 mice, gene knockout mice or non-transgenic animals are administered test compounds formulated in vehicles, such as cyclodextran, phosphate buffers, hydroxypropyl methylcellulose or other suitable vehicles. One to twenty-four hours following the administration of compound, animals are sacrificed, and brains as well as cerebrospinal fluid (CSF) and plasma are removed for analysis of A-beta levels and drug or test compound concentrations (Dovey et al., 2001, Journal of Neurochemistry, 76, 173-181) Beginning at time 0, animals are administered by oral gavage, or other means of delivery such as intravenous injection, an inhibitory test compound of up to 100 mg/kg in a standard, conventional formulation, such as 2% hydroxypropyl methylcellulose, 1% Tween80. A separate group of animals receive 2% hydroxypropyl methylcellulose, 1% Tween80 alone, containing no test compound, and serve as a vehicle-control group. At the end of the test period, animals are sacrificed and brain tissues, plasma or cerebrospinal fluid are collected. Brains are either homogenized in 10 volumes (w/v) of 0.2% diethylamine (DEA) in 50 mM NaCl (Best et al., 2005, Journal of Pharmacology and Experimental Therapeutics, 313, 902-908), or in 10 volumes of 0.5% TritonX-100 in Tris-buffered saline (pH at about 7.6). Homogenates are centrifuged at 355,000 g, 4° C. for 30 minutes. CSF or brain supernatants are then analyzed for the presence of A-beta peptide by specific sandwich ELISA assays based on ECL (Electrochemiluminescence) technology. For example, rat Abeta40 is measured using biotinylated-4G8 (Signet) as a capture antibody and Fab40 (an in-house antibody specific to the C-terminal of Abeta40) as a detection antibody. For example, 4 hours after administration of 30 mg/kg oral dose of the test compound in 2% hydroxypropyl methylcellulose, 1% Tween80 (pH2.2) to 200 g male Sprague Dawley rats, amyloid beta peptide levels are measured for reduction by X % and Y % in cerebrospinal fluid and brain, respectively, when compared to the levels measured in the vehicle-treated rats.
• Oral: 2% HPMC, 1% Tween80, pH 2.2 • IV: 5% EtOH, 45% Propylene glycol in 5% Dextrose
The compounds of the invention may be shown to reduce the formation and/or deposition of amyloid beta peptide in the cerebrospinal fluid (CSF) as well as in the brain of a mouse or rat at either 3 mpk, 10 mpk or 30 mpk (mpk=mg compound per kg weight of the animal) dosing concentrations after 4 hrs.

[3] = Abeta 40, rat CSF, read-out: % reduction of rat CSF levels at 10 pmk
[4] = Abeta 40, rat brain, read-out: % reduction of rat brain levels at 10 mpk

Sequence of BACE 1 (beta secretase enzyme) (P56817 46-501): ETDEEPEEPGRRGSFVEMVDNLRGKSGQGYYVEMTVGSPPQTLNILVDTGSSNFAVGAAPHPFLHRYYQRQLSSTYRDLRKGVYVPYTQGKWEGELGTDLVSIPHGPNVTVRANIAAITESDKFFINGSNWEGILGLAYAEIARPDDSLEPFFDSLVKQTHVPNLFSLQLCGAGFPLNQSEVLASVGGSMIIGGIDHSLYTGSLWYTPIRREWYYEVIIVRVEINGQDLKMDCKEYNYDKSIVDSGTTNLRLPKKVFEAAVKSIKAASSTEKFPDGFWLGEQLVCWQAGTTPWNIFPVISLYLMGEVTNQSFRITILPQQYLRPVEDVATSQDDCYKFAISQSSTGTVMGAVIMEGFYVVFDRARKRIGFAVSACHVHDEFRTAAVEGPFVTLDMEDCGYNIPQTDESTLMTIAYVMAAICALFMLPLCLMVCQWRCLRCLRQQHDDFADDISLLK
Sequence of Cathepsin D (P07339 65-412, species assumed): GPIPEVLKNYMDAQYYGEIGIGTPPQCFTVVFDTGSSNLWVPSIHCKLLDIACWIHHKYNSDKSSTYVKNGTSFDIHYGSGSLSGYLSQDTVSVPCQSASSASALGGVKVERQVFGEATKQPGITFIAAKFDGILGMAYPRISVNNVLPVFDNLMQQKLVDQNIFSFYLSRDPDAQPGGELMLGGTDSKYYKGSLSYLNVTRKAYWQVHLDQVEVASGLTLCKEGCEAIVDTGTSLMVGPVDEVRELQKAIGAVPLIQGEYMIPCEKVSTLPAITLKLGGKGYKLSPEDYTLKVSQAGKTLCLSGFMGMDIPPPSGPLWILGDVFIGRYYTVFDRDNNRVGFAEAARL

| SMILES | IC50 [1] | IC50 [2] | IC50 (Cathepsin D) | inhibition in vivo at 10 mg/kg (Abeta 40; [3]) | inhibition in vivo at 10 mg/kg (Abeta 40; [4]) |
| --- | --- | --- | --- | --- | --- |
| NC1=N[C@@]2(CCO1)c1cc(NC(=O)c3ccc(Cl)cn3)ccc1Oc1cnc(C3CC3)cc12 [Example 81, N-((5S)-2′-amino-3-cyclopropyl-5′,6′-dihydrospiro[chromeno[2,3-c]pyridine-5,4′-[1,3]oxazin]-7-yl)-5-chloro-2-pyridinecarboxamide] | 10.7 nM | 1.1 nM | 400000 nM | 76% | 64% |
| COc1cnc(C(=O)Nc2ccc3c(c2)[C@@]2(CCSC(N)=N2)c2cc(C4=CCCOC4)ncc2O3)cn1 [Example 104, N-((5S)-2′-amino-3-(5,6-dihydro-2H-pyran-3-yl)-5′,6′-dihydrospiro[chromeno[2,3-c]pyridine-5,4′-[1,3]thiazin]-7-yl)-5-methoxy-2-pyrazinecarboxamide] | 3.1 nM | 1 nM | 295000 nM | 64% | 43% |
| NC1=N[C@@]2(CCO1)c1cc(NC(=O)c3ccc(F)cn3)ccc1Oc1c2cc(-c2ccnc(F)c2)nc1F [Example 97, N-((5S)-2′-amino-1-fluoro-3-(2-fluoro-4-pyridinyl)-5′,6′-dihydrospiro[chromeno[2,3-c]pyridine-5,4′-[1,3]oxazin]-7-yl)-5-fluoro-2-pyridinecarboxamide] | 1.2 nM | 1.1 nM | – | 63% | 44% |
| NC1=N[C@@]2(CCS1)c1cc(NC(=O)c3ccc(Cl)cn3)ccc1Oc1c2cc(C2=CCOCC2)nc1F [Example 117, N-((5S)-2′-amino-3-(3,6-dihydro-2H-pyran-4-yl)-1-fluoro-5′,6′-dihydrospiro[chromeno[2,3-c]pyridine-5,4′-[1,3]thiazin]-7-yl)-5-chloro-2-pyridinecarboxamide] | – | 0.6 nM | 133000 nM | 80% | 70% |
| NC1=N[C@@]2(CCO1)c1cc(NC(=O)c3ccc(Cl)cn3)ccc1Oc1c2cc(C2CC2)nc1F [Example 40, N-((5S)-2′-amino-3-cyclopropyl-1-fluoro-5′,6′-dihydrospiro[chromeno[2,3-c]pyridine-5,4′-[1,3]oxazin]-7-yl)-5-chloro-2-pyridinecarboxamide] | 2.4 nM | 3.4 nM | – | 75% | 58% |
| NC1=N[C@@]2(CCS1)c1cc(NC(=O)c3ccc(F)cn3)ccc1Oc1c2cc(C2=CCOCC2)nc1F [Example 116, N-((5S)-2′-amino-3-(3,6-dihydro-2H-pyran-4-yl)-1-fluoro-5′,6′-dihydrospiro[chromeno[2,3-c]pyridine-5,4′-[1,3]thiazin]-7-yl)-5-fluoro-2-pyridinecarboxamide] | 1 nM | 0.6 nM | – | 73% | 56% |
| COc1cnc(C(=O)Nc2ccc3c(c2)[C@@]2(CCOC(N)=N2)c2cc(C4=CCCOC4)cc(F)c2O3)cn1 [Example 106, N-((4S)-2-amino-7′-(5,6-dihydro-2H-pyran-3-yl)-5′-fluoro-5,6-dihydrospiro[1,3-oxazine-4,9′-xanthen]-2′-yl)-5-methoxy-2-pyrazinecarboxamide] | – | 1.6 nM | 107000 nM | 43% | 16% |

Second part, led by results:

| IC50 [1] | IC50 [2] | IC50 (Cathepsin D) | SMILES | inhibition in vivo at 10 mg/kg (Abeta 40; [3]) | inhibition in vivo at 10 mg/kg (Abeta 40; [4]) |
| --- | --- | --- | --- | --- | --- |
| 0.6 nM | 0.3 nM | 400000 nM | NC1=N[C@@]2(CCO1)c1cc(NC(=O)c3ccc(Cl)cn3)ccc1Oc1c2cc(-c2cncc(F)c2)nc1F [Example 71, N-((5S)-2′-amino-1-fluoro-3-(5-fluoro-3-pyridinyl)-5′,6′-dihydrospiro[chromeno[2,3-c]pyridine-5,4′-[1,3]oxazin]-7-yl)-5-chloro-2-pyridinecarboxamide] | 79% | 70% |
| – | 0.6 nM | 341000 nM | NC1=N[C@@]2(CCO1)c1cc(NC(=O)c3ccc(Cl)cn3)ccc1Oc1ncc(C3=CCOCC3)cc12 [Example 45, N-((5S)-2′-amino-3-(3,6-dihydro-2H-pyran-4-yl)-5′,6′-dihydrospiro[chromeno[2,3-b]pyridine-5,4′-[1,3]oxazin]-7-yl)-5-chloro-2-pyridinecarboxamide] | 27% | 14% |
| 1.4 nM | 0.1 nM | 400000 nM | NC1=N[C@@]2(CCO1)c1cc(NC(=O)c3ccc(Cl)cn3)ccc1Oc1c2cc(C2=CCOCC2)nc1F [Example 63, N-((5S)-2′-amino-3-(3,6-dihydro-2H-pyran-4-yl)-1-fluoro-5′,6′-dihydrospiro[chromeno[2,3-c]pyridine-5,4′-[1,3]oxazin]-7-yl)-5-chloro-2-pyridinecarboxamide] | 80% | 75% |
| 1.3 nM | 0.6 nM | 400000 nM | COc1cnc(C(=O)Nc2ccc3c(c2)[C@@]2(CCOC(N)=N2)c2cc(-c4cncc(F)c4)nc(F)c2O3)cn1 [Example 70, N-((5S)-2′-amino-1-fluoro-3-(5-fluoro-3-pyridinyl)-5′,6′-dihydrospiro[chromeno[2,3-c]pyridine-5,4′-[1,3]oxazin]-7-yl)-5-methoxy-2-pyrazinecarboxamide] | 70% | 59% |
| 9.4 nM | 1.1 nM | – | COc1cnc(C(=O)Nc2ccc3c(c2)[C@@]2(CCOC(N)=N2)c2cc(C4=CCCOC4)ncc2O3)cn1 [Example 58, N-((5S)-2′-amino-3-(5,6-dihydro-2H-pyran-3-yl)-5′,6′-dihydrospiro[chromeno[2,3-c]pyridine-5,4′-[1,3]oxazin]-7-yl)-5-methoxy-2-pyrazinecarboxamide] | 55% | 36% |
| 10 nM | 1.9 nM | – | CC(C)(C)C#Cc1cc2c(cn1)Oc1ccc(NC(=O)c3ccc(Cl)cn3)cc1[C@@]21CCOC(N)=N1 [Example 82, N-((5S)-2′-amino-3-(3,3-dimethyl-1-butyn-1-yl)-5′,6′-dihydrospiro[chromeno[2,3-c]pyridine-5,4′-[1,3]oxazin]-7-yl)-5-chloro-2-pyridinecarboxamide] | 67% | 42% |
| 6.5 nM | 5.6 nM | – | COc1cnc(C(=O)Nc2ccc3c(c2)[C@@]2(CCOC(N)=N2)c2cc(-c4ccnc(F)c4)cc(F)c2O3)cn1 [Example 95, N-((4S)-2-amino-5′-fluoro-7′-(2-fluoro-4-pyridinyl)-5,6-dihydrospiro[1,3-oxazine-4,9′-xanthen]-2′-yl)-5-methoxy-2-pyrazinecarboxamide] | 54% | 21% |
| 47.6 nM | 11 nM | > 1650 nM | COc1cnc(C(=O)Nc2ccc3c(c2)[C@@]2(CCOC(N)=N2)c2cc(Br)cnc2O3)cn1 [Example 44, N-((5S)-2′-amino-3-bromo-5′,6′-dihydrospiro[chromeno[2,3-b]pyridine-5,4′-[1,3]oxazin]-7-yl)-5-methoxy-2-pyrazinecarboxamide] | – | – |
